biological target: T1, rat NaP2b (SLC34A2) (Rattus norvegicus, UniProt Q9JJ09); experiment: Inhibition of NaP2b-mediated Pi (33P) uptake in transfected HEK293 cells, rat NaP2b; type: cell-based; conditions: 33P Pi uptake, 0.1 mM phosphate, value given as pIC50 range
T1 construct: host or cells: HEK293
T1 sequence (Q9JJ09 1-695): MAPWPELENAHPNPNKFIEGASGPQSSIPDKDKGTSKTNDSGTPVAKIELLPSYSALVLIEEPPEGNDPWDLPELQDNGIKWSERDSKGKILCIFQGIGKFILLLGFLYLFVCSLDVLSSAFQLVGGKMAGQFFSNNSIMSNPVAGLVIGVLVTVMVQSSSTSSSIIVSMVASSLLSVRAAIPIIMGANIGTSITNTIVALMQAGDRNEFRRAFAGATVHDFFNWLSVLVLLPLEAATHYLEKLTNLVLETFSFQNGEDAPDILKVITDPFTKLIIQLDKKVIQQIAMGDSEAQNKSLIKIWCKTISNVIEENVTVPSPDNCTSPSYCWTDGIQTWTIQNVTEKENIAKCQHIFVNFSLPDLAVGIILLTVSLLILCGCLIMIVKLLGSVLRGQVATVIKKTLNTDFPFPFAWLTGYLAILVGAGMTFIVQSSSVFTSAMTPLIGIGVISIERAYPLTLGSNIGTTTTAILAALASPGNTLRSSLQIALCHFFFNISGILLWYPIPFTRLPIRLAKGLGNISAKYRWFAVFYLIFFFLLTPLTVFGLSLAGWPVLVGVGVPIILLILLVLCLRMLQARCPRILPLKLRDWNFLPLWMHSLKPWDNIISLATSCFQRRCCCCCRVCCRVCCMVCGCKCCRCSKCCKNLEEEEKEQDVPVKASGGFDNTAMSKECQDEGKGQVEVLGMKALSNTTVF
Protocol: HEK293 cells were obtained from the American Type Culture collection and propagated per their instructions. […] The sequence of the human protein was mutated to insert a threonine after residue 37, and to introduce a N39D mutation.
Cells were seeded into 96-well plates at 25,000 cells/well and cultured overnight. Lipofectamine 2000 (Invitrogen) was used to introduce the NaP2b cDNA, and the cells were allowed to approach confluence during a second overnight incubation. […] Each compound was tested at twelve concentrations ranging from 0.1 nM to 30 uM. Assays were run in duplicate.
Cells were lysed by addition of 20 μL 0.1% Tween 80 followed by 100 μL scintillation fluid, and counted using a TopCount (Perkin Elmer).
pIC50 (the negative log of the IC50) values of the test compounds were calculated using GraphPad Prism.

Row | SMILES | IC50 [µM]
1 | CC(=O)NC1CCN(C(=O)c2cccc(C(=O)Nc3ccc(N4CCCCC4)cc3-c3cc(C(=O)NCc4cccc(C(F)(F)F)c4)ccn3)c2)C1 (stereo in doubt) [Example 4.10, (S)-2-(2-(3-(3-Acetamidopyrrolidine-1-carbonyl)benzamido)-5-(piperidin-1-yl)phenyl)-N-(3-(trifluoromethyl)benzyl)isonicotinamide] | 10 to 31.6
2 | COCCNC(=O)C1CCCN(Cc2cccc(C(=O)Nc3ccc(N4CCCCC4)cc3-c3cc(C(=O)NCc4cccc(C(F)(F)F)c4)ccn3)c2)C1 (stereo in doubt) [Example 12.1, (S)-2-(2-(3-((3-((2-Methoxyethyl)carbamoyl)piperidin-1-yl)methyl)benzamido)-5-(piperidin-1-yl)phenyl)-N-(3-(trifluoromethyl)benzyl)isonicotinamide] | 1 to 7.94
3 | COCCNC(=O)C1CCCN(Cc2cccc(C(=O)Nc3ccc(N4CCCCC4)cc3-c3cc(C(=O)NCc4cccc(C(F)(F)F)c4)ccn3)c2)C1 (stereo in doubt) [Example 12.2, (R)-2-(2-(3-((3-((2-Methoxyethyl)carbamoyl)piperidin-1-yl)methyl)benzamido)-5-(piperidin-1-yl)phenyl)-N-(3-(trifluoromethyl)benzyl)isonicotinamide] | 10 to 31.6
4 | O=C(O)CCSCc1cccc(C(=O)Nc2ccc(N3CCCCC3)cc2-c2cc(C(=O)NCc3ccc(C(F)(F)F)nc3)ccn2)c1 [Example 1.2, 3-((3-((4-(Piperidin-1-yl)-2-(4-(((6-(trifluoromethyl)pyridin-3-yl)methyl)carbamoyl)pyridin-2-yl)phenyl)carbamoyl)benzyl)thio)propanoic acid] | 10 to 31.6
5 | CC(C)(C)c1ccc(CNC(=O)c2ccnc(-c3cc(N4CCCCC4)ccc3NC(=O)c3cccc(CSCCC(=O)O)c3)c2)cc1 [Example 1.3, 3-((3-((2-(4-((4-(Tert-butyl)benzyl)carbamoyl)pyridin-2-yl)-4-(piperidin-1-yl)phenyl)carbamoyl)benzyl)thio)propanoic acid] | 1 to 7.94
6 | O=C(O)CCSCc1cccc(C(=O)Nc2ccc(N3CCCCC3)cc2-c2cc(C(=O)NCCc3cccc(C(F)(F)F)c3)ccn2)c1 [Example 1.5] | 1 to 7.94
7 | CCCCCCCNC(=O)c1ccnc(-c2cc(N3CCCCC3)ccc2NC(=O)c2cccc(CSCCC(=O)O)c2)c1 [Example 1.6] | 1 to 7.94
8 | O=C(O)CCSCc1cccc(C(=O)Nc2ccc(N3CCCCC3)cc2-c2cc(C(=O)NCC3CCCCC3)ccn2)c1 [Example 1.7] | 1 to 7.94
9 | CC(C)CNC(=O)c1ccnc(-c2cc(N3CCCCC3)ccc2NC(=O)c2cccc(CSCCC(=O)O)c2)c1 [Example 1.8] | 10 to 31.6
10 | CN(C)c1ccc(CNC(=O)c2ccnc(-c3cc(N4CCCCC4)ccc3NC(=O)c3cccc(CSCCC(=O)O)c3)c2)cc1 [Example 1.10] | 1 to 7.94
11 | Nc1ccccc1CNC(=O)c1ccnc(-c2cc(N3CCCCC3)ccc2NC(=O)c2cccc(CSCCC(=O)O)c2)c1 [Example 1.11] | 10 to 31.6
12 | O=C(O)CCSCc1cccc(C(=O)Nc2ccc(N3CCCCC3)cc2-c2cc(C(=O)NCc3cccc4ccccc34)ccn2)c1 [Example 1.12] | 1 to 7.94
13 | O=C(O)CCSCc1cccc(C(=O)Nc2ccc(N3CCCCC3)cc2-c2cc(C(=O)NC3CCCc4ccccc43)ccn2)c1 (stereo not drawn) [Example 1.13] | 1 to 7.94
14 | O=C(O)CCSCc1cccc(C(=O)Nc2ccc(N3CCCCC3)cc2-c2cc(C(=O)NCc3ccc(N4CCCCC4)cc3)ccn2)c1 [Example 1.14] | 1 to 7.94
15 | O=C(O)CCSCc1cccc(C(=O)Nc2ccc(N3CCCCC3)cc2-c2cc(C(=O)NCc3cccc(N4CCCCC4)c3)ccn2)c1 [Example 1.15] | 1 to 7.94
16 | O=C(O)CCSCc1cccc(C(=O)Nc2ccc(N3CCCCC3)cc2-c2cc(C(=O)NCc3cccc(CN4CCOCC4)c3)ccn2)c1 [Example 1.16] | 10 to 31.6
17 | Cc1ccc(Cl)cc1CNC(=O)c1ccnc(-c2cc(N3CCCCC3)ccc2NC(=O)c2cccc(CSCCC(=O)O)c2)c1 [Example 1.17] | 1 to 7.94
18 | Cc1ccc(CNC(=O)c2ccnc(-c3cc(N4CCCCC4)ccc3NC(=O)c3cccc(CSCCC(=O)O)c3)c2)o1 [Example 1.18] | 1 to 7.94
19 | O=C(O)CCSCc1cccc(C(=O)Nc2ccc(N3CCCCC3)cc2-c2cc(C(=O)Nc3nc4ccccc4[nH]3)ccn2)c1 [Example 1.19] | 10 to 31.6
20 | O=C(O)CCSCc1cccc(C(=O)Nc2ccc(N3CCCCC3)cc2-c2cc(C(=O)Nc3ccc4ncsc4c3)ccn2)c1 [Example 1.20] | 10 to 31.6
21 | O=C(O)CCSCc1cccc(C(=O)Nc2ccc(N3CCCCC3)cc2-c2cc(C(=O)NCc3cccc(-n4cccn4)c3)ccn2)c1 [Example 1.21] | 10 to 31.6
22 | O=C(O)CCSCc1cccc(C(=O)Nc2ccc(N3CCCCC3)cc2-c2cc(C(=O)NCc3ccc4c(c3)OCCCO4)ccn2)c1 [Example 1.22] | 1 to 7.94
23 | O=C(O)CCSCc1cccc(C(=O)Nc2ccc(N3CCCCC3)cc2-c2cc(C(=O)NCc3ccc4c(c3)OCO4)ccn2)c1 [Example 1.23] | 1 to 7.94

Row | SMILES | IC50 [µM]
24 | O=C(O)CCSCc1cccc(C(=O)Nc2ccc(N3CCCCC3)cc2-c2cc(C(=O)NCc3ccc4c(c3)CCO4)ccn2)c1 [Example 1.24] | 1 to 7.94
25 | O=C(O)CCSCc1cccc(C(=O)Nc2ccc(N3CCCCC3)cc2-c2cc(C(=O)NCc3ccc(F)c(OC(F)(F)F)c3)ccn2)c1 [Example 1.25] | 1 to 7.94
26 | O=C(O)CCSCc1cccc(C(=O)Nc2ccc(N3CCCCC3)cc2-c2cc(C(=O)NCc3ccc(OC(F)(F)F)c(F)c3)ccn2)c1 [Example 1.26] | 1 to 7.94
27 | COc1ccc(CNC(=O)c2ccnc(-c3cc(N4CCCCC4)ccc3NC(=O)c3cccc(CSCCC(=O)O)c3)c2)cc1C(F)(F)F [Example 1.27] | 10 to 31.6
28 | O=C(O)CCSCc1cccc(C(=O)Nc2ccc(N3CCCCC3)cc2-c2cc(C(=O)NCc3ccc(F)c(C(F)(F)F)c3)ccn2)c1 [Example 1.28] | 1 to 7.94
29 | O=C(O)CCSCc1cccc(C(=O)Nc2ccc(N3CCCCC3)cc2-c2cc(C(=O)NCc3cc(F)cc(C(F)(F)F)c3)ccn2)c1 [Example 1.29] | 1 to 7.94
30 | O=C(O)CCSCc1cccc(C(=O)Nc2ccc(N3CCCCC3)cc2-c2cc(C(=O)NCc3cc(C(F)(F)F)ccc3F)ccn2)c1 [Example 1.30] | 1 to 7.94
31 | O=C(O)CCSCc1cccc(C(=O)Nc2ccc(N3CCCCC3)cc2-c2cc(C(=O)NCc3cccc(C(F)(F)F)c3F)ccn2)c1 [Example 1.31] | 1 to 7.94
32 | O=C(O)CCSCc1cccc(C(=O)Nc2ccc(N3CCCCC3)cc2-c2cc(C(=O)NCc3ccc(Cl)c(C(F)(F)F)c3)ccn2)c1 [Example 1.33] | 1 to 7.94
33 | O=C(O)CCSCc1cccc(C(=O)Nc2ccc(N3CCCCC3)cc2-c2cc(C(=O)NC3CCc4ccccc43)ccn2)c1 (stereo not drawn) [Example 1.34] | 1 to 7.94
34 | O=C(O)CCSCc1cccc(C(=O)Nc2ccc(N3CCCCC3)cc2-c2cc(C(=O)NC3Cc4ccccc4C3)ccn2)c1 [Example 1.35] | 1 to 7.94
35 | O=C(O)CCSCc1cccc(C(=O)Nc2ccc(N3CCCCC3)cc2-c2cc(C(=O)NC(c3ccccc3)c3ccccc3)ccn2)c1 [Example 1.36] | 1 to 7.94
36 | CN(Cc1cccc(C(F)(F)F)c1)C(=O)c1ccnc(-c2cc(N3CCCCC3)ccc2NC(=O)c2cccc(CSCCC(=O)O)c2)c1 [Example 1.37] | 1 to 7.94
37 | Cc1cccc(CN(C)C(=O)c2ccnc(-c3cc(N4CCCCC4)ccc3NC(=O)c3cccc(CSCCC(=O)O)c3)c2)c1 [Example 1.38] | 10 to 31.6
38 | O=C(O)CCSCc1cccc(C(=O)Nc2ccc(N3CCCCC3)cc2-c2cc(C(=O)NCc3ccc(OCc4ccccc4)cc3)ccn2)c1 [Example 1.39] | 1 to 7.94
39 | O=C(O)CCSCc1cccc(C(=O)Nc2ccc(N3CCCCC3)cc2-c2cc(C(=O)NCc3ccc(Oc4ccccc4)cc3)ccn2)c1 [Example 1.40] | 1 to 7.94
40 | O=C(O)CCSCc1cccc(C(=O)Nc2ccc(N3CCCCC3)cc2-c2cc(C(=O)NCc3cccc(-c4ccccc4)c3)ccn2)c1 [Example 1.42] | 1 to 7.94
41 | O=C(O)CCSCc1cccc(C(=O)Nc2ccc(N3CCCCC3)cc2-c2cc(C(=O)NCc3ccccc3OC(F)(F)F)ccn2)c1 [Example 1.43] | 1 to 7.94
42 | O=C(O)CCSCc1cccc(C(=O)Nc2ccc(N3CCCCC3)cc2-c2cc(C(=O)NCc3ccc(OC(F)(F)F)cc3)ccn2)c1 [Example 1.44] | 1 to 7.94
43 | O=C(O)CCSCc1cccc(C(=O)Nc2ccc(N3CCCCC3)cc2-c2cc(C(=O)NCc3cccc(OC(F)(F)F)c3)ccn2)c1 [Example 1.45] | 1 to 7.94
44 | Cc1cccc(CNC(=O)c2ccnc(-c3cc(N4CCCCC4)ccc3NC(=O)c3cccc(CSCCC(=O)O)c3)c2)c1 [Example 1.46] | 1 to 7.94
45 | O=C(O)CCSCc1cccc(C(=O)Nc2ccc(N3CCCCC3)cc2-c2cc(C(=O)NCc3ccc(C(F)(F)F)cc3)ccn2)c1 [Example 1.47] | 1 to 7.94

Reference: US20140023611A1 (priority 2010, published 2014)
